We go through 39 molecules from US8580803B2, “Substituted pyrrolo-aminopyrimidine compounds” (ArQule, Inc., priority 2009, dated 2013).

The structures appear in SMILES notation.

Test system in the first series: not given
Assay: not given
Conditions: not given
In the case of `CC(=O)Nc1ccc(Nc2ncnc3[nH]cc(C(=O)c4ccccc4)c23)cc1`, the melting point fell in the range of 263 to 264 °C.

In turn, `O=C(Cc1cncc(Br)c1)Nc1cccc(Nc2ncnc3[nH]cc(C(=O)c4ccccc4)c23)c1` registered a melting point above 300 °C.

In turn, `CCNC(=O)Nc1cccc(Nc2ncnc3[nH]cc(C(=O)c4ccccc4)c23)c1` had a melting point of 183 to 185 °C.

For `CC(C)(C)OC(=O)Nc1ccc(Nc2ncnc3[nH]cc(C(=O)c4ccccc4)c23)cc1`, the melting point lay within 274 to 280 °C.

`Nc1cccc(Nc2ncnc3[nH]cc(C(=O)c4ccccc4)c23)c1`: the melting point was in the range of 280 to 282 °C.

For the molecule `CNC(=O)c1cccc(Nc2ncnc3[nH]cc(C(=O)c4ccc(Cl)cc4)c23)c1`, the melting point was above 300 °C.

`CC(=O)Nc1cccc(Nc2ncnc3c2c(C(=O)c2ccccc2)cn3C)c1` showed a melting point of 140 to 142 °C.

For `CNC(=O)c1cccc(Nc2ncnc3[nH]cc(C(=O)c4ccccc4C)c23)c1`, the melting point was above 300 °C.

The target in the next series is T1, ACK1 (110-489) (Homo sapiens, UniProt Q07912).
T1 construct: ACK1 110-489 (12.5 μl) were added to each well
T1 sequence (Q07912 110-489, species assumed): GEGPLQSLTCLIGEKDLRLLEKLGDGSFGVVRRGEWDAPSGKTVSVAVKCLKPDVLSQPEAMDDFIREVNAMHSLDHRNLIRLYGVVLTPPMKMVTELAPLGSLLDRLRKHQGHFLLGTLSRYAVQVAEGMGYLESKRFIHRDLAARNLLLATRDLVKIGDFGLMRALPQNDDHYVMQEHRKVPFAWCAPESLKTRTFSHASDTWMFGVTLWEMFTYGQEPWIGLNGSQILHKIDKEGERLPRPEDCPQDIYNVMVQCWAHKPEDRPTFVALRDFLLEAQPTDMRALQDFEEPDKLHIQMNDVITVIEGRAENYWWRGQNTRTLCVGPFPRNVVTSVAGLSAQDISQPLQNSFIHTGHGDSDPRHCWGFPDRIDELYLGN
Put plainly: ACK1 Activity Assay (AlphaScreen, PYK2-derived peptide). Particulars: Average of ACK1(110-489), IC50, AlphaScreen (Pyk2); read-out: ACK1 (110-489) IC50. It is filed as biochemical. As to the method: The extent of peptide phosphorylation was determined by using acceptor beads conjugated to phosphotyrosine antibody that recognizes the phosphorylated peptide and donor beads conjugated to streptavidin that binds to the biotin on the peptide. Excitation of the donor beads converted ambient oxygen to excited singlet oxygen which when in close proximity to acceptor beads, reacted with acceptor beads where the signal was amplified.
Test inhibitors and controls (N-(2,6-dimethylphenyl)-4-(2-ethoxyphenoxy)-2-[(4-piperazin-1-ylphenyl)amino]pyrimidine-5-carboxamide) were prepared in 10% DMSO at 10× the desired final concentration. […] After a 20-min incubation at room temperature, the kinase reaction was initiated by the addition of 10 μl of PYK2/ATP mixture. […] The plates were incubated for 60 min at room temperature. The reaction was stopped by the addition of 10 μl stop/detection mixture which contains EDTA (final concentration is 10 mM), AlphaScreen™ Streptavidin Donor beads (final concentration is 500 ng/well) and AlphaScreen™ Phospho-tyrosine (P-Tyr-100) Acceptor beads (final concentration is 500 ng/well) were diluted in assay buffer. This reagent addition step was performed in the dark because the AlphaScreen™ beads are light-sensitive. The plate was incubated for 60 min at room temperature in the dark and the plates were read on the Perkin Elmer Envision Multilabel plate reader ([…]).
Regarding `O=C(Cc1cncc(Br)c1)Nc1cccc(Nc2ncnc3[nH]cc(C(=O)c4ccccc4)c23)c1` [drawing 251, N-{3-[(5-benzoyl-7H-pyrrolo[2,3-d]pyrimidin-4-yl)amino]phenyl}-2-(5-bromopyridin-3-yl)acetamide], the IC50 amounted to 1.47 µM.

As for `CC(=O)Nc1cccc(Nc2ncnc3[nH]cc(C(=O)c4ccccc4C)c23)c1` [drawing 243, N-(3-{[5-(2-methylbenzoyl)-7H-pyrrolo[2,3-d]pyrimidin-4-yl]amino}phenyl)acetamide], the IC50 turned out to be 1.26 µM.

Regarding `COC(=O)c1cc(NC(=O)CNC(C)=O)cc(Nc2ncnc3[nH]cc(C(=O)c4ccccc4)c23)c1` [drawing 277, methyl 3-[(N-acetylglycyl)amino]-5-{[5-(phenylcarbonyl)-7H-pyrrolo[2,3-d]pyrimidin-4-yl]amino}benzoate], the IC50 turned out to be 2 µM.

With `CCNC(=O)Nc1cccc(Nc2ncnc3[nH]cc(C(=O)c4ccccc4)c23)c1` [drawing 275, 1-ethyl-3-(3-{[5-(phenylcarbonyl)-7H-pyrrolo[2,3-d]pyrimidin-4-yl]amino}phenyl)urea], the IC50 was 1.81 µM.

Take `O=C(c1ccccc1)c1c[nH]c2ncnc(Nc3ccc(NC(=O)C4CCN(c5ccncc5)CC4)cc3)c12` [N-(4-{[5-(phenylcarbonyl)-7H-pyrrolo[2,3-d]pyrimidin-4-yl]amino}phenyl)-1-pyridin-4-ylpiperidine-4-carboxamide]: the IC50 is 1.27 µM.

Turning to `COCc1ccc(CC(=O)Nc2ccc(Nc3ncnc4[nH]cc(C(=O)c5ccccc5)c34)cc2)cc1` [2-[4-(methoxymethyl)phenyl]-N-(4-{[5-(phenylcarbonyl)-7H-pyrrolo[2,3-d]pyrimidin-4-yl]amino}phenyl)acetamide], the IC50 amounted to 69 µM.

On to `O=C(c1ccccc1)c1c[nH]c2ncnc(Nc3cccc(CCO)c3)c12` [drawing 259, (4-{[3-(2-hydroxyethyl)phenyl]amino}-7H-pyrrolo[2,3-d]pyrimidin-5-yl)(phenyl)methanone], for which the IC50 worked out at 5.14 µM.

In the case of `CCCC(=O)Nc1ccc(Nc2ncnc3[nH]cc(C(=O)c4ccccc4)c23)cc1` [N-{4-[(5-benzoyl-7H-pyrrolo[2,3-d]pyrimidin-4-yl)amino]phenyl}butanamide], the IC50 was found to be 3.77 µM.

On to `CN(C)CCC(=O)Nc1ccc(Nc2ncnc3[nH]cc(C(=O)c4ccccc4)c23)cc1` [N-(4-((5-benzoyl-7H-pyrrolo[2,3-d]pyrimidin-4-yl)amino)phenyl)-3-(dimethylamino)propanamide], for which the 50% inhibitory concentration (IC50) was 0.415 µM.

`Cc1cccc(Nc2ncnc3[nH]cc(C(=O)c4ccccc4)c23)c1` [phenyl(4-(m-tolylamino)-7H-pyrrolo[2,3-d]pyrimidin-5-yl)methanone]: the IC50 stood at 55.4 µM.

With `NC(=O)CCC(=O)Nc1ccc(Nc2ncnc3[nH]cc(C(=O)c4ccccc4)c23)cc1` [N-(4-{[5-(phenylcarbonyl)-7H-pyrrolo[2,3-d]pyrimidin-4-yl]amino}phenyl)butanediamide], the IC50 came out at 0.646 µM.

As for `O=C(Nc1ccc(Nc2ncnc3[nH]cc(C(=O)c4ccccc4)c23)cc1)c1ccncc1Cl` [3-chloro-N-(4-{[5-(phenylcarbonyl)-7H-pyrrolo[2,3-d]pyrimidin-4-yl]amino}phenyl)pyridine-4-carboxamide], the IC50 came out at 28.9 µM.

With `CC(=O)Nc1ccc(Nc2ncnc3[nH]cc(C(=O)c4ccccc4)c23)cc1` [drawing 241, N-{4-[(5-benzoyl-7H-pyrrolo[2,3-d]pyrimidin-4-yl)amino]phenyl}acetamide], the IC50 worked out at 1.43 µM.

In the case of `CC(C)(C)NC(=O)Nc1cccc(Nc2ncnc3[nH]cc(C(=O)c4ccccc4)c23)c1` [drawing 274, 1-tert-butyl-3-(3-{[5-(phenylcarbonyl)-7H-pyrrolo[2,3-d]pyrimidin-4-yl]amino}phenyl)urea], the IC50 came out at 6.65 µM.

Regarding `NCc1ccc(Nc2ncnc3[nH]cc(C(=O)c4ccccc4)c23)cc1` [drawing 258, (4-{[4-(aminomethyl)phenyl]amino}-7H-pyrrolo[2,3-d]pyrimidin-5-yl)(phenyl)methanone], the IC50 is 0.446 µM.

With `O=C(CCc1cccnc1)Nc1ccc(Nc2ncnc3[nH]cc(C(=O)c4ccccc4)c23)cc1` [N-(4-{[5-(phenylcarbonyl)-7H-pyrrolo[2,3-d]pyrimidin-4-yl]amino}phenyl)-3-pyridin-3-ylpropanamide], the IC50 came to 4.39 µM.

Take `O=C(Nc1ccc(N2CCCCC2)cc1)c1cccc(Nc2ncnc3[nH]cc(C(=O)c4ccccc4)c23)c1` [3-[(5-benzoyl-7H-pyrrolo[2,3-d]pyrimidin-4-yl)amino]-N-(4-piperidin-1-ylphenyl)benzamide]: the IC50 amounted to 31.4 µM.

Turning to `O=C(Cn1ccnc1)Nc1ccc(Nc2ncnc3[nH]cc(C(=O)c4ccccc4)c23)cc1` [2-(1H-imidazol-1-yl)-N-(4-{[5-(phenylcarbonyl)-7H-pyrrolo[2,3-d]pyrimidin-4-yl]amino}phenyl)acetamide], the IC50 was 0.798 µM.

As to `CN(C)CCCC(=O)Nc1ccc(Nc2ncnc3[nH]cc(C(=O)c4ccccc4)c23)cc1` [4-(dimethylamino)-N-(4-{[5-(phenylcarbonyl)-7H-pyrrolo[2,3-d]pyrimidin-4-yl]amino}phenyl)butanamide], the IC50 is 2.57 µM.

Regarding `O=C(Nc1ccc(Nc2ncnc3[nH]cc(C(=O)c4ccccc4)c23)cc1)c1ccc(CN2CCOCC2)cc1` [4-(morpholin-4-ylmethyl)-N-(4-{[5-(phenylcarbonyl)-7H-pyrrolo[2,3-d]pyrimidin-4-yl]amino}phenyl)benzamide], the IC50 came out at 10.9 µM.

As to `COCCCC(=O)Nc1ccc(Nc2ncnc3[nH]cc(C(=O)c4ccccc4)c23)cc1` [4-methoxy-N-(4-{[5-(phenylcarbonyl)-7H-pyrrolo[2,3-d]pyrimidin-4-yl]amino}phenyl)butanamide], the IC50 was 1.02 µM.

Regarding `CC(C)C(=O)Nc1ccc(Nc2ncnc3[nH]cc(C(=O)c4ccccc4)c23)cc1` [N-{4-[(5-benzoyl-7H-pyrrolo[2,3-d]pyrimidin-4-yl)amino]phenyl}-2-methylpropanamide], the IC50 came out at 4.77 µM.

For `CC(=O)Nc1cccc(Nc2ncnc3[nH]cc(C(=O)c4cccc(F)c4)c23)c1` [drawing 245, N-(3-{[5-(3-fluorobenzoyl)-7H-pyrrolo[2,3-d]pyrimidin-4-yl]amino}phenyl)acetamide], the IC50 amounted to 2.29 µM.

As for `O=C(Nc1ccccc1)Nc1cccc(Nc2ncnc3[nH]cc(C(=O)c4ccccc4)c23)c1` [drawing 260, 1-phenyl-3-(3-{[5-(phenylcarbonyl)-7H-pyrrolo[2,3-d]pyrimidin-4-yl]amino}phenyl)urea], the IC50 is 28.1 µM.

Take `COc1ccc(Nc2ncnc3[nH]cc(C(=O)c4ccccc4)c23)c(OC)c1` [(4-((2,4-dimethoxy-phenyl)amino)-7H-pyrrolo[2,3-d]pyrimidin-5-yl)(phenyl)methanone]: the IC50 turned out to be 4.53 µM.

Take `O=C(c1ccccc1)c1c[nH]c2ncnc(Nc3ccc4cc[nH]c4c3)c12` [(4-((1H-indol-6-yl)amino)-7H-pyrrolo[2,3-d]pyrimidin-5-yl)(phenyl)methanone]: the IC50 turned out to be 61.5 µM.

As for `CN(C)CC(=O)Nc1ccc(Nc2ncnc3[nH]cc(C(=O)c4ccccc4)c23)cc1` [N-(4-((5-benzoyl-7H-pyrrolo[2,3-d]pyrimidin-4-yl)amino)phenyl)-2-(dimethylamino)acetamide], the IC50 is 0.241 µM.

Regarding `O=C(c1ccccc1)c1c[nH]c2ncnc(Nc3cccc(CO)c3)c12` [drawing 276, (4-{[3-(hydroxymethyl)phenyl]amino}-7H-pyrrolo[2,3-d]pyrimidin-5-yl)(phenyl)methanone], the IC50 stood at 0.24 µM.

Consider `CNC(=O)c1cccc(Nc2ncnc3[nH]cc(C(=O)c4cccc(F)c4)c23)c1` [drawing 244, 3-{[5-(3-fluorobenzoyl)-7H-pyrrolo[2,3-d]pyrimidin-4-yl]amino}-N-methylbenzamide], for which the IC50 was 0.914 µM.

For `CNC(=O)c1cccc(Nc2ncnc3[nH]cc(C(=O)c4ccccc4C)c23)c1` [drawing 242, N-methyl-3-{[5-(2-methylbenzoyl)-7H-pyrrolo[2,3-d]pyrimidin-4-yl]amino}benzamide], the IC50 is 0.189 µM.

`CC(=O)NCCC(=O)Nc1ccc(Nc2ncnc3[nH]cc(C(=O)c4ccccc4)c23)cc1` [3-acetamido-N-(4-((5-benzoyl-7H-pyrrolo[2,3-d]pyrimidin-4-yl)amino)phenyl)propanamide]: the IC50 came to 0.776 µM.
